# Results published in patent publication US6060241A (priority 1997, dated 2000).
# Tests used:
# [1] = target: T1, Hp 3-oxoacid CoA-transferase (Helicobacter pylori, UniProt P56006+P56007); assay: 3-oxoacid CoA transferase activity reconstituted in E. coli, in the presence of inhibitors; format: biochemical; conditions: for Specific activity (mU/mg ± SD), 3-oxoacid CoA transferase, E. coli transformed with pCOA-t: substances (50 nM), lysate of E. coli transformed with pCoA-t, none = 2255 ± 7; for inhibition of Hp CoA-transferase (in words): statement that refers to Example 11
# T1 construct: second column endogenous enzyme in H. pylori lysate
# Protocol: For 3-oxoadipate-CoA and 3-oxoacid CoA-transferase assays (FIGS. 7A, 7B, and 7C), E. coli cells transformed with pCoAT, which contains A^73 TGAA-TATAG^1394 of SEQ ID NO.:1 or with pUrea a plasmid containing the gene for urease (Labigne et al., J. Bacteriol. 173:1920-1931 (1991)) as a negative control, were washed once with M9 salts minimal medium (Molecular Cloning, a laboratory manual, Sambrook, Fritsch and Maniatis, second edition), pellets were stored at -20° C. until just prior to disruption. Thawed cell pellets were resuspended in 1 ml 50 mM phosphate buffer (pH 6.8), 1 mM dithiothreitol (Merck). Cell suspensions were disrupted by sonication and cellular debris removed by centrifugation. For butyrate-acetoacetate-CoA-transferase assays, the buffer used for cell wash and pellets resuspension was: 50 mM MOPS (pH 7.0), 0.5 M (NH4)2SO4, 20% (v/v) glycerol, 1 mM EDTA. Protein concentration in cellular extracts was determined by Bradford's method (1976) using γ globulin as standard (Bio-Rad) and activity expressed in U/mg of protein.
# (§1) Activity was measured by monitoring the increase in A310 corresponding to the formation of acetoacetyl-CoA, as previously described (Howard et al., 1986). The assay contained 67 mM acetoacetate (Aldrich), 300 μM succinyl-CoA and 15 mM MgCl2 in 50 mM Tris-HCl pH 9.1. Under the experiment conditions, ε=7,800 M^-1 cm^-1.
# (§2) The activity assay was performed as described in Example 8 in the presence of the indicated inhibitors. The results are presented below in Table 6
# [2] = target: T1, Hp 3-oxoacid CoA-transferase; assay: 3-oxoacid CoA transferase activity endogenous in H. pylori lysates, in the presence of inhibitors; format: biochemical; conditions: substances (50 nM); endogenous enzyme in H. pylori lysate; none = 25 ± 1
# Protocol: as §1
# (§3) The activity assay was performed as described in Example 8, using H. pylori cell lysates.
# as §2
# acetoacetyl CoA thiolase = target: T2, acetoacetyl CoA thiolase (Helicobacter pylori, UniProt O25399); assay: biochemical; format: biochemical
# T2 construct: mouse-adapted P49 used for mutants
# Protocol: as §1, §3
# The only CoA-transferase activity detected in H. pylori lysates was the one leading to the formation of acetoacetyl CoA from succinyl CoA and acetoacetate in the presence of Mg^2+.
# [3] = target: 3 oxo acid CoA-transferase (Helicobacter pylori, UniProt P56006+P56007); assay: Reverse reaction of CoA-transferase, disappearance of acetoacetyl CoA at 310 nm; format: biochemical; conditions: Hp 69A + 2 mM iodoacetamide; Hp 69A alone = 227 ± 4
# From the text: As described above, CoA-transferase also catalyzes the reverse reaction, acetoacetyl CoA+succinate→acetoacetate+succinyl CoA. This additional 3-oxoacid CoA-transferase activity is examined in transformed E. coli and H. pylori by measuring the disappearance of acetoacetyl CoA at 310 nm.
# [4] = target: mammalian CoA-transferase (Homo sapiens, UniProt P55809); assay: Effect on the mammalian CoA-transferase; conditions: statement that refers to Example 11; no mammalian data printed
# Sequence of mammalian CoA-transferase (P55809 40-520): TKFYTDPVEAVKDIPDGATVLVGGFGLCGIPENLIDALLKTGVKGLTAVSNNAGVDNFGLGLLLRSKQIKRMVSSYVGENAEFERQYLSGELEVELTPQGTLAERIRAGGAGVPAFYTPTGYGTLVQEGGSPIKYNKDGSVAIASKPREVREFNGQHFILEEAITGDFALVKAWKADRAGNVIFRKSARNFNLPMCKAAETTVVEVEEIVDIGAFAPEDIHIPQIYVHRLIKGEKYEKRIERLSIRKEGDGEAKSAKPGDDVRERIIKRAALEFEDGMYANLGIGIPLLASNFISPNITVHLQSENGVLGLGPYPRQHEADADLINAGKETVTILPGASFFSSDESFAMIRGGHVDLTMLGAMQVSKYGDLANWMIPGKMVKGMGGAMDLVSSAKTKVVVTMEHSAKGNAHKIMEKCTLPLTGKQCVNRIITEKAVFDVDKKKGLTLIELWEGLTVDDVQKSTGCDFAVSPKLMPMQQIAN
# T1 sequence (P56006 whole entry): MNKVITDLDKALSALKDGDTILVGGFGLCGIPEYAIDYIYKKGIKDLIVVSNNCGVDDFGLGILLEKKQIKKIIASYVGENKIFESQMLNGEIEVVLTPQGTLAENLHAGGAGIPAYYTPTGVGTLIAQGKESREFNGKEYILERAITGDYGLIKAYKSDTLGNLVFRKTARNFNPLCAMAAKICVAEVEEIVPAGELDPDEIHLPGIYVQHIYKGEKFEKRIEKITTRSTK
# T1 sequence (P56007 whole entry): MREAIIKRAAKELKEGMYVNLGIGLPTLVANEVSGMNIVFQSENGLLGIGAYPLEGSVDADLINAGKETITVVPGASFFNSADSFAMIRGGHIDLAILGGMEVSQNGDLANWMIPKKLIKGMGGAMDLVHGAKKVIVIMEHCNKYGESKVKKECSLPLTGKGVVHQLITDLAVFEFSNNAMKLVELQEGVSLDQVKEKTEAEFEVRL
# T2 sequence (O25399 entry or part of it): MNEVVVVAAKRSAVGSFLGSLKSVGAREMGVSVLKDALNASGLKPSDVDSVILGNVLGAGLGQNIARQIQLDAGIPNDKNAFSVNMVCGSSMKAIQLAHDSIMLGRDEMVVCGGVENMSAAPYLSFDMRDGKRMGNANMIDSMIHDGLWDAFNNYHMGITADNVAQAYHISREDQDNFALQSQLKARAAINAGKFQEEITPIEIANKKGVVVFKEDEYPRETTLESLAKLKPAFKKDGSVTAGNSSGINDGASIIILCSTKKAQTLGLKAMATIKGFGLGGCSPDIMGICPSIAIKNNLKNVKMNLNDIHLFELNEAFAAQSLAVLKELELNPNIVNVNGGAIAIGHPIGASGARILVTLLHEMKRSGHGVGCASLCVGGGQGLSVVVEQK
# Sequence of 3 oxo acid CoA-transferase (P56007 whole entry): as the sequence (P56007 whole entry) above
# Sequence of 3 oxo acid CoA-transferase (P56006 whole entry): as the sequence (P56006 whole entry) above
Structure (SMILES),"Specific activity (mU/mg ± SD), 3-oxoacid CoA transferase, E. coli transformed with pCOA-t [1]","Specific activity (mU/mg ± SD), 3-oxoacid CoA transferase, H pytori [2]","CoA transferase specific activity (acetoacetyl CoA thiolase; 2 mM iodoacetamide, H. pylori lysate, 25±2 mU/mg without iodoacetamide)",fold induction at 2000 µM (acetoacetyl CoA thiolase; read-out: increase of CoA transferase specific activity),"Specific activity (mU/mg), reverse reaction [3]",inhibition of Hp CoA-transferase (in words) [1],inhibition of the mammalian homologue (in words) [4]
O=C(O)CC(=O)O [disodium malonate],1823 ± 162 mU/mg,27 ± 4 mU/mg,–,–,–,–,–
O=C(O)CCCC(=O)O [glutaric acid],31 ± 7 mU/mg,16 ± 5 mU/mg,–,–,–,–,–
NC(=O)CI [iodoacetamide],–,–,60±2 mU/mg,2.5,257 ± 0 mU/mg,–,–
O=C(O)CC(S)C(=O)O (stereo not drawn) [mercapto succinic acid],16 ± 13 mU/mg,2 ± 2 mU/mg,–,–,–,inhibit Hp CoA-transferase,not the mammalian homologue
CC(CC(=O)O)C(=O)O (stereo not drawn) [methyl succinic acid],67 ± 51 mU/mg,0 ± 1 mU/mg,–,–,–,inhibit Hp CoA-transferase,not the mammalian homologue
COC(=O)CCC(=O)O [methyl succinic ester],58 ± 49 mU/mg,14 ± 3 mU/mg,–,–,–,–,–
N[C@@H](CC(=O)O)C(=O)[O-].[Na+] [monosodium aspartate],1859 ± 151 mU/mg,24 ± 1 mU/mg,–,–,–,–,–
O=C(O)CC(O)C(=O)O (stereo not drawn) [monosodium malate],131 ± 0 mU/mg,22 ± 8 mU/mg,–,–,–,–,–
